Patent publication US9447086B2, “6-amino acid heteroaryldihydropyrimidines for the treatment and prophylaxis of hepatitis B virus infection” (priority 2012, dated 2016)
Converted amounts (≈) assume the structure as drawn.

Assays:
[1] = Cytotoxicity (CC50) in HepDE19 cells, CCK-8 cell viability; type: cell-based; conditions: human, HepDE19 cells; read-out: CC50
From the text: HepG2.2.15 and HepDE19 are stably-transfected cell lines containing the HBV genome. Both cell lines are derived from the hepatoblastoma cell line Hep G2 (American Type Culture Collection, ATCC® HB-8065™) by the published procedures described in references: MA Selles et al. Proc. Natl. Acad. Sci. USA 1987, 84, 1005-1009 and H Guo et al. Journal of Virology 2007, 81, 12472-12484, respectively. Both cell lines were maintained in Dulbecco's modified Eagle's medium (DMEM)-F12 medium supplemented with 10% fetal bovine serum, 100 U/mL penicillin, 100 μg/mL streptomycin, and 0.5 mg/mL of G418.
Five days after treatment, cell viability was measured by addition of 20 μL of CCK-8 reagent. Two hours after incubation at 37° C., the absorbance at wavelengths of 450 nm and 630 nm (OD450 and OD630) was recorded by a plate reader.

HBV [2] = experiment: Anti-HBV activity in vitro in HepG2.2.15 cells (extracellular HBV DNA by qPCR); type: cell-based, Hepatitis B virus; conditions: Hepatitis B virus; HepG2.2.15 cells; in-house data; read-out: EC50
How it was run: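 HepG2.2.15 cells, which constitutively produce HBV, were seeded overnight and then treated for 5 days with half-log serially diluted compounds at 0.5% final DMSO. Extracellular HBV DNA in culture supernatant was extracted and quantified by qPCR.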

[3] = Lyophilisation solubility assay (Lysa); type: physicochemical; conditions: phosphate buffer, pH 6.5, aqueous buffer, thermodynamic from solid
How it was run: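 Duplicate samples from 10 mM DMSO stocks are dried, redissolved in 0.05 M phosphate buffer pH 6.5, stirred 1 h, shaken 2 h and left overnight. Filtrate and its 1/10 dilution are quantified by direct UV or HPLC-UV, giving solubility in μg/mL.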

[4] = Metabolic stability study in human microsome; type: in vitro ADME
How it was run: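 Human liver microsomes (0.5 mg/mL) with 1 μM compound in 100 mM phosphate pH 7.4 at 37 °C, started with 1 mM NADPH or an NADPH-regenerating system. Samples taken at 0, 3, 6, 9, 15 and 30 min, quenched in methanol. Parent remaining measured by LC-MS/MS; no-cofactor controls included.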

HBV [5] = experiment: Selectivity index (CC50 value/EC50 value); type: cell-based, Hepatitis B virus
From the text: Based on FDA guidance, in order to support clinical testing in humans, the assessment of acceptable risk-benefit has to be achieved by providing clear evidence of in vitro antiviral activity (EC50) and cytotoxicity (CC50). It is important to establish that an investigational product has antiviral activity at concentrations that can be achieved in vivo without inducing toxic effects to cells. Furthermore, in a cell culture model, apparent antiviral activity of an investigational product can be the result of host cell death after exposure to the product. The relative effectiveness of the compound in inhibiting viral replication compared to inducing cell death is defined as the selectivity index (CC50 value/EC50 value). It is desirable to have a high selectivity index giving maximum antiviral activity with minimal cell toxicity.
The relative effectiveness of the compound in inhibiting viral replication compared to inducing cell death is defined as the selectivity index (CC50 value/EC50 value). It is desirable to have a high selectivity index giving maximum antiviral activity with minimal cell toxicity.

SMILES	CC50 at 5 days [1] [µM]	EC50 (HBV [2]) [µM]	solubility thermodynamic [3] [µg/mL]	Human Hepatic Clearance [4] [mL/min/kg]	Selectivity index (CC50/EC50) (HBV [5])
CCOC(=O)C1=C(CN2CC(F)(F)C[C@H]2C(=O)O)NC(c2nccn2C)=N[C@H]1c1ccc(F)cc1Cl [Example 36, (R)-6-((S)-2-Carboxy-4,4-difluoro-pyrrolidin-1-ylmethyl)-4-(2-chloro-4-fluoro-phenyl)-2-(1-methyl-1H-imidazol-2-yl)-1,4-dihydro-pyrimidine-5-carboxylic acid ethyl ester]	23	0.018	> 637	6.22	1251
CCOC(=O)C1=C(CN2CC(F)(F)C[C@H]2C(=O)O)NC(c2nccs2)=N[C@H]1c1ccc(Cl)cc1Cl [Example 38, (R)-6-((S)-2-Carboxy-4,4-difluoro-pyrrolidin-1-ylmethyl)-4-(2,4-dichloro-phenyl)-2-thiazol-2-yl-1,4-dihydro-pyrimidine-5-carboxylic acid ethyl ester]	21	0.0033	291 (≈ 534 µM)	9.3	6315
CCOC(=O)C1=C(CN2CC(F)(F)C[C@H]2C(=O)O)NC(c2nccs2)=N[C@H]1c1ccc(F)c(F)c1 [Example 41, (S)-6-((S)-2-Carboxy-4,4-difluoro-pyrrolidin-1-ylmethyl)-4-(3,4-difluoro-phenyl)-2-thiazol-2-yl-1,4-dihydro-pyrimidine-5-carboxylic acid ethyl ester]	40	0.017	> 630	6.83	2372
CCOC(=O)C1=C(CN2CCOC[C@H]2C(=O)O)NC(c2nccs2)=N[C@H]1c1ccc(F)c(F)c1 [Example 42, (S)-4-[(S)-6-(3,4-Difluoro-phenyl)-5-ethoxycarbonyl-2-thiazol-2-yl-3,6-dihydro-pyrimidin-4-ylmethyl]-morpholine-3-carboxylic acid]	> 100	0.01	> 613	5.56	>10000
CCOC(=O)C1=C(CN2CCOC[C@H]2C(=O)O)NC(c2nccs2)=N[C@H]1c1cc(F)c(F)c(F)c1 [Example 43, (S)-4-[(S)-5-Ethoxycarbonyl-2-thiazol-2-yl-6-(3,4,5-trifluoro-phenyl)-3,6-dihydro-pyrimidin-4-ylmethyl]-morpholine-3-carboxylic acid]	> 100	0.018	> 606	1.2	>5556
CCOC(=O)C1=C(CN2CCOC[C@H]2C(=O)O)NC(c2nccs2)=N[C@H]1c1ccc(F)c(F)c1F [Example 44, (S)-4-[(R)-5-Ethoxycarbonyl-2-thiazol-2-yl-6-(2,3,4-trifluoro-phenyl)-3,6-dihydro-pyrimidin-4-ylmethyl]-morpholine-3-carboxylic acid]	49	0.0046	> 626	4.46	10748
CCOC(=O)C1=C(CN2CCOC[C@H]2C(=O)O)NC(c2nccs2)=N[C@H]1c1ccc(Cl)c(Cl)c1 [Example 46, (S)-4-[(S)-6-(3,4-Dichloro-phenyl)-5-ethoxycarbonyl-2-thiazol-2-yl-3,6-dihydro-pyrimidin-4-ylmethyl]-morpholine-3-carboxylic acid]	36	0.016	> 655	0	2212
CCOC(=O)C1=C(CN2CCOC[C@H]2C(=O)O)NC(c2nccs2)=N[C@H]1c1ccc(Cl)cc1F [Example 49, (S)-4-[(R)-6-(4-Chloro-2-fluoro-phenyl)-5-ethoxycarbonyl-2-thiazol-2-yl-3,6-dihydro-pyrimidin-4-ylmethyl]-morpholine-3-carboxylic acid]	42	0.0047	> 679	0	8936
CCOC(=O)C1=C(CN2CC(F)(F)C[C@H]2C(=O)O)NC(c2nccs2)=N[C@H]1c1cccc(F)c1F [Example 50, (R)-6-((S)-2-Carboxy-4,4-difluoro-pyrrolidin-1-ylmethyl)-4-(2,3-difluoro-phenyl)-2-thiazol-2-yl-1,4-dihydro-pyrimidine-5-carboxylic acid ethyl ester]	26	0.014	> 580	0	1905
CCOC(=O)C1=C(CN2CCOC[C@H]2C(=O)O)NC(c2nccs2)=N[C@H]1c1ccc(Br)c(F)c1 [Example 52, (S)-4-[(S)-6-(4-Bromo-3-fluoro-phenyl)-5-ethoxycarbonyl-2-thiazol-2-yl-3,6-dihydro-pyrimidin-4-ylmethyl]-morpholine-3-carboxylic acid]	14	0.003	> 665	4.03	4693
CCOC(=O)C1=C(CN2CCOC[C@H]2C(=O)O)NC(c2nccs2)=N[C@H]1c1cccc(F)c1 [Example 53, (S)-4-[(S)-5-Ethoxycarbonyl-6-(3-fluoro-phenyl)-2-thiazol-2-yl-3,6-dihydro-pyrimidin-4-ylmethyl]-morpholine-3-carboxylic acid]	69	0.014	> 621	0	4769
CCOC(=O)C1=C(CN2CCOC[C@H]2C(=O)O)NC(c2nccn2C)=N[C@H]1c1ccc(F)c(F)c1 [Example 57, (S)-4-[(S)-6-(3,4-Difluoro-phenyl)-5-ethoxycarbonyl-2-(1-methyl-1H-imidazol-2-yl)-3,6-dihydro-pyrimidin-4-ylmethyl]-morpholine-3-carboxylic acid]	35	0.015	> 613	0	2384
CCOC(=O)C1=C(CN2CC(F)(F)C[C@H]2C(=O)O)NC(c2nccs2)=N[C@H]1c1ccc(F)cc1F [Example 59, (R)-6-((S)-2-Carboxy-4,4-difluoro-pyrrolidin-1-ylmethyl)-4-(2,4-difluoro-phenyl)-2-thiazol-2-yl-1,4-dihydro-pyrimidine-5-carboxylic acid ethyl ester]	52	0.013	> 630	3.5	3935
CCOC(=O)C1=C(CN2CC(F)(F)C[C@H]2C(=O)O)NC(c2nccs2)=N[C@H]1c1cccc(F)c1Cl [Example 64, (R)-6-((S)-2-Carboxy-4,4-difluoro-pyrrolidin-1-ylmethyl)-4-(2-chloro-3-fluoro-phenyl)-2-thiazol-2-yl-1,4-dihydro-pyrimidine-5-carboxylic acid ethyl ester]	47	0.003	> 620	0	15667
COC(=O)C1=C(CN2CCOC[C@H]2C(=O)O)NC(c2ncoc2C)=N[C@H]1c1ccc(F)cc1Br [Example 65, (S)-4-[(R)-6-(2-Bromo-4-fluoro-phenyl)-5-methoxycarbonyl-2-(5-methyl-oxazol-4-yl)-3,6-dihydro-pyrimidin-4-ylmethyl]-morpholine-3-carboxylic acid]	> 100	0.0076	> 678	1.67	>13157
CCOC(=O)C1=C(CN2CCOC[C@H]2C(=O)O)NC(c2ncoc2C)=N[C@H]1c1ccc(F)cc1Br [Example 69, (S)-4-[(R)-6-(2-Bromo-4-fluoro-phenyl)-5-ethoxycarbonyl-2-(5-methyl-oxazol-4-yl)-3,6-dihydro-pyrimidin-4-ylmethyl]-morpholine-3-carboxylic acid]	57	0.006	> 658	0	9500
